Series [1] relates to Human Dermal Fibroblast (HDF) cells. Description: Bioactivity study: HDF proliferation, CellTiter-Blue assay, untreated samples. The format is cell-based. Particulars: no stress, samples stored at −80° C. before use; 1 ng/ml bFGF or bFGF in conjugate; 72 hours; normalized to blank. The protocol:
(§1) Preparation of untreated and treated samples is detailed in the Methods section. The concentrations of bFGF and bFGF in the conjugates under treatment were 0.05 ng/μL. The concentration of heparin under treatment was 0.075 ng/μl or 0.05 μg/μl, while the concentrations of the unconjugated polymers were 0.075 ng/μl. The final concentrations of bFGF and bFGF conjugates in the medium were 1 ng/ml. Incubation of HDF with each of the samples was carried out for 72 hours. CellTiter® blue assay was performed to quantify percent cell growth. Data was normalized to the blank sample (no bFGF added) in that same treatment group. Each sample was done with six repeats, and the whole experiment was repeated eight times including one blinded study, except (+)bFGF(+)1.5 ng/ml pPEGMA and (+)bFGF-pPEGMA were repeated four times. Error bars are SEM. Statistical analysis was done using two-way ANOVA and Student's T-test. * denotes p<0.05, ** denotes p<0.01 and *** denotes p<0.001 between the sample indicated and the (+) bFGF (−) heparin within that same stress set.
HDF cells were trypsinized and resuspended in UltraCULTURE™ serum-free medium supplemented with 2 mM L-Glutamine and 100 u/ml penicillin and 100 μg/ml streptomycin. The cells were plated at a concentration of 2000 cells/well in a 96-well plate and allowed to adhere over 16 hours at 37° C., 5% CO2. […] Then, the medium in the wells was replaced with 100 μl of each sample. After an incubation for 72 hours at 37° C., 5% CO2, CellTiter-Blue® assay was carried out to evaluate cell proliferation. […] Each group was done with six replicates, and the whole experiment was repeated four times, one of which was a blinded study.
HDFs were used as the in vitro model to evaluate the bioactivity of the bFGF-heparin mimicking polymer conjugate before and after exposure to various stresses.

Series [2] shares this test system. Description: Stability study of bFGF and bFGF conjugates under treatments, read out as HDF proliferation. The format is cell-based. The following applies: for percent cell growth after trypsin treatment: 0.1% w/v trypsin for 16 hours at 4° C.; for bioactivity after mildly acidic conditions: pH 4.7 for 16 hours at 4° C.; for percent cell growth after storage: storage at 4° C. for 16 hours. The protocol:
as §1
To study the stability of bFGF and bFGF conjugates under various treatments (storage, acidic conditions, protease degradation, and heat), the protein and the conjugates were diluted in medium after these treatments and tested for their bioactivity in promoting HDF proliferation.
The control blank group contained 15 μl of D-PBS. The 15 μl/experimental group was split into 4 vials of 3 μl/vial for four separate treatments. In one set of the 3 μl-vials, 27 μl of D-PBS was added to each vial and the samples were stored at 4° C. for 16 hours. In another set of 3 μl-vials, 27 μl of pH 4.7 PBS was added to each vial and the samples were stored at 4° C. for 16 hours. In the third set of 3 μl-vials, 27 μl of 0.1% Trypsin was added to each vial and the samples were stored at 4° C. for 16 hours. The fourth set of 3 μl-vials were stored at 4° C. for 16 hours before 27 μl of 1% TFA was added and treated for 2 hours at 4° C. The samples under no treatment and under heat treatment were prepared fresh in the same way towards the end of the 16 hour-treatment of other samples. The samples under heat treatment were placed in dry bath at 55° C. for 30 minutes. […] Then, the medium samples were used for cell proliferation assay as described above. After an incubation for 72 hours at 37° C., 5% CO2, CellTiter-Blue® assay was carried out to evaluate cell proliferation. […] Each group was done with six replicates, and the whole experiment was repeated four times, one of which was a blinded study. A two-way ANOVA and student's T-test were done for statistical analysis.
The chosen treatments represent environmental stresses that the growth factor (or any heparin-binding protein) could be exposed to. For example, storage in the unfrozen form and exposure to heat during delivery, transport, or use were represented by the “Storage at 4° C. for 16 hours” treatment and “Heat at 55° C. for 30 minutes” treatment, respectively. Incubation at “pH 4.7 for 16 hours” is relevant because mildly acidic conditions are necessary to inhibit bacterial growth during wound treatment.
Furthermore, the stability of the bFGF-heparin mimicking conjugate was challenged against proteolytic degradation and extreme acidic conditions by incubating with 0.1% w/v trypsin for 16 hours and 1% trifluoroacetic acid (TFA) for 2 hours, respectively. The starting concentrations of bFGF and bFGF in the conjugates were equivalent and the concentrations of the unconjugated polymers and heparin were the same at approximately stoichiometric ratios to bFGF. The positive control group contained a large excess (700 molar) of heparin to bFGF. The negative control was native bFGF alone.

The test system is the same in series [3]. The experiment in a line: Bioactivity after 4-week storage at 4° C., HDF proliferation. It is filed as cell-based. The following applies: 4 weeks of storage at 4° C., then 1 ng/ml on HDF for 72 hours. The protocol: FIG. 4B depicts exemplary bioactivity study of bFGF-heparin mimicking (bFGF-pSS-co-PEGMA) conjugate in promoting HDF proliferation compared to other control groups before and after the treatments. Preparation of untreated and treated samples is detailed in the Methods section. The concentrations of bFGF and bFGF in the conjugates under treatment were 0.05 ng/μL. The concentration of heparin under treatment was 0.075 ng/μl or 0.05 μg/μl, while the concentrations of the unconjugated polymers were 0.075 ng/μl. The final concentrations of bFGF and bFGF conjugates in the medium were 1 ng/ml. Bioactivity study of bFGF-heparin mimicking polymer, bFGF-pSS-co-PEGMA conjugate, after 4-week storage at 4° C. Data was normalized to the blank sample (contained medium only). Each group was done with six replicates.
Bioactivity study of bFGF-pSS-co-PEGMA conjugate after long-time storage was also tested. After 4 weeks of storage 4° C.
In these experiments, an amount of 30 μl of each experimental group in D-PBS was made up to contain 0.05 ng/μ1 of bFGF or bFGF-pSS-co-PEGMA conjugate. The positive control group was prepared to contain 0.05 ng/μl of bFGF and 0.05 μg/μl of heparin. The samples were then stored at 4° C. for 4 weeks. […]

Series [4] has the same test system. It is filed as cell-based. Particulars: 1 ng/ml bFGF or conjugate, 72 hours, with 125 nM PD173074. The protocol: FIG. 6 depicts the exemplary results of an inhibition assay. The medium samples were prepared with and without 125 nM of PD173074. 2,000HDF cells/well was incubated with each of the sample for 72 hours at 37° C., 5% CO2. Each sample group was done with six replicates, and the whole experiment was repeated three times.
To confirm that the bFGF-heparin mimicking conjugate promoted cell growth by the same transduction pathway as by native bFGF, a potent inhibitor for FGF receptor 1 (FGFR1) was included in the media. PD173074 (N-[2-[[4-(diethylamino)butyl]amino]-6-(3, 5-dimethoxyphenyl)pyrido[2, 3-d]pyrimidin-7-yl]-N′-(1, 1-dimethylethyl)-urea) competes with adenosine-5′-triphosphate (ATP) for binding to the receptors, a key step for FGFR phosphorylation, and shuts down the signal transduction pathways associated with cell proliferation.
HDF cells were trypsinized and resuspended in UltraCULTURE™ serum-free medium supplemented with 2 mM L-Glutamine and 100 u/ml penicillin and 100 μg/ml streptomycin. […] On the next day, the experimental groups were prepared to contain 1 ng/ml of bFGF, or 1 ng/ml of bFGF with 1 μg/ml of heparin, or 1 ng/ml of bFGF-pSS-co-PEGMA; all with an addition of 125 nM of the inhibitor PD173074. The control groups were the replicates but without the addition of the inhibitor. Then, the medium in the wells was replaced with 100 μl of each sample. […]

In the next series the test system is BaF3 cells (FR1C-11). The experiment in a line: Proliferation study of BaF3 cells expressing FGFR1 and lacking heparan sulfate proteoglycans. The format is cell-based. The following applies: 42 hours, medium lacking IL-3, normalized to blank; for percent cell growth, bFGF or conjugate alone: 1 ng/ml, without heparin. The protocol: BaF3 cells (FR1C-11), which express FGFR1 but lack heparin sulfate proteoglycans, were seeded at a density of 20,000 cells/well in cultured medium lacking IL-3 in a 96-well-plate. […] The cells were incubated for 42 hours. CellTiter® blue assay was performed to quantify percent cell growth. Data was normalized to blank sample group. Each group was done with six replicates. Error bars are standard deviations.
Heparin (as cell surface receptors called heparan sulfate proteoglycans) is also known to increase the mitogenic activity of bFGF by increasing binding to the bFGF receptors (FGFRs). In addition, heparin promotes bFGFR dimerization by providing the “glue” between two bFGFs and two FGFRs (see crystal structure, FIGS. 12B and 12C). In fact, this heparin assisted, ligand-induced dimerization of bFGFRs is required for activity. […] In some embodiments, the new heparin mimicking polymer can induce the dimerization and uptake the FGFRs.
While bFGF interacts directly with cells by binding to FGFRs, signal transduction cannot occur without the simultaneous interaction with heparan sulfate proteoglycan (HS) cell surface receptors. […] BaF3 cells are engineered to express FGFR1 and lack cell-surface HS; addition of soluble heparin is required to activate the cells with bFGF.

Series [5] concerns Human Dermal Fibroblast (HDF) cells. Particulars: 1 ng/ml to 1 mg/ml for 24 hours in the absence of bFGF.
Description: 5,000 HDF cells/well was incubated with various concentrations of each polymer for 24 hours at 37° C., 5% CO2. Then, each well was washed twice with D-PBS and subsequently incubated with 1 μM Calcein AM 4 μM Ethidium homodimer-1 in D-PBS for 20 minutes at 37° C., 5% CO2. Percentage of live cells was calculated by dividing the number of live cells by the total number of live and dead cells. Each experimental group was done with four replicates, and the whole experiment was repeated four times, one of which was a blinded study. Error bars are SEMs.
HDF cells were trypsinized and resuspended in fibroblast growth medium lacking bFGF. The cells were plated at a concentration of 5000 cells/well in a 48-well plate and allowed to adhere over 16 hours at 37° C., 5% CO2. Then, the medium in the wells was replaced with 200 μl of the working medium containing various amount of polymer/heparin. After an incubation of 24 hours at 37° C., 5% CO2, cell viability was assessed using LIVE/DEAD® viability/cytotoxicity assay. Briefly, the cells were washed twice with pre-warmed D-PBS, then incubated with 200 μl of 1 μM Calcein AM and 4 μM Ethidium homodimer-1 in D-PBS for 20 minutes at 37° C., 5% CO2. […] The numbers of live and dead cells were counted manually using NIH Image J software, and percent live cells was calculated by dividing the number of live cells by the total number of live and dead cells. […]
The mark [6] stands for this setting: then 1 ng/ml on HDF for 72 hours.

The substance “bFGF-pSS-co-PEGMA: bFGF covalently conjugated via a reversible disulfide bond to one heparin mimicking polymer pSS-co-PEGMA (mono-conjugate)” displayed a percent cell growth in series [1] of 213±13%. Moreover, in series [2] (setting [6]), the “percent cell growth after trypsin treatment” value is on record as 176±11%, the “bioactivity after mildly acidic conditions” value was “statistically the same as before treatment” and the “percent cell growth after storage” value came out at 210±10%. Besides, the “percent cell growth after TFA treatment” value in series [2] (1% trifluoroacetic acid (TFA) for 2 hours, then 1 ng/ml on HDF for 72 hours) was found to be 162±17%. Also, in series [2] (heat at 55° C. for 30 minutes, then 1 ng/ml on HDF for 72 hours), the “percent cell growth after heat treatment” value is 167±12%. The “stability to the treatments (overall)” value in series [2] (storage, pH 4.7, trypsin, 1% TFA, heat, read out as HDF proliferation) was “stable”. In addition, in series [3], the “activity after long-time storage” value is “completely retained”. Besides, in series [4], the “percent cell growth in the presence of PD173074” value came to 85±11%. Also, the “percent cell growth, bFGF or conjugate alone” value in the series with BaF3 cells (FR1C-11) was “did not induce cell growth”. The “percent cell growth, bFGF or conjugate alone” value with BaF3 cells (FR1C-11) (listed as bFGF-pSS-co-pPEGMA) was 147±14%.
“bFGF-poly(ethylene glycol) methyl ether methacrylate) [bFGF-pPEGMA, reference compound]” gave a percent cell growth in series [1] of 190±6%. Moreover, in series [2] (setting [6]), the “percent cell growth after trypsin treatment” value was “some stability”, the “bioactivity after mildly acidic conditions” value is listed as “some stability” and the “percent cell growth after storage” value was “some stability”.
Consider “bFGF: Basic fibroblast growth factor, a 16-kDa polypeptide, also called fibroblast growth factor 2”, for which the percent cell growth in series [1] was 192±9%. Moreover, the “percent cell growth in the presence of PD173074” value in series [4] was found to be 88±5%. The “percent cell growth, bFGF or conjugate alone” value with BaF3 cells (FR1C-11) stood at 127±12%.
Consider heparin [reference compound], for which the “percent cell growth, additive given with bFGF” value with BaF3 cells (FR1C-11) (1 μg/ml of additive with 1 ng/ml of bFGF) was 384±35%. For the same substance, in series [5], the percent cell viability result is “the same as no polymer added”.

(Values after patent publication US10039807B2, “bFGF-polymer conjugates, methods for making the same and applications thereof” (THE REGENTS OF THE UNIVERSITY OF CALIFORNIA, priority 2011, dated 2018).)
